From patent US6518265B1, “1H-imidazopyridine derivatives” (Hokuriku Seiyaku Co., Ltd., priority 1998, dated 2003)
Structures can show the parent of a compound that is named as a salt.

melting point | SMILES
225 to 232 °C (dec.) | Clc1nc2c(c3c1nc(-c1ccccc1)n3CCC1CCNCC1)CCC2 (as salt: trifluoroacetate) [Example 136]
261 to 272 °C (dec.) | Clc1nc2ccccc2c2c1nc(-c1ccccc1)n2CC[C@@H]1CCCN1 (as salt: fumarate) (hydrate or solvate) [Example 134]
215 to 218 °C (dec.) | CC(C)(C)OC(=O)N1CCC(CCn2c(-c3ccccc3)nc3c(Cl)nc4c(c32)CCCC4)CC1 [Example 33]
199 to 200 °C | CC(C)(C)OC(=O)N1CCC(CCn2c(-c3ccccc3)nc3c(Cl)nc4ccsc4c32)CC1 [Example 35]
215 to 220 °C (dec.) | CNC(=S)N1CCC(CCn2c(-c3ccccc3)nc3c(Cl)nc4ccccc4c32)CC1 [Example 201, 4-[2-(4-Chloro-2-phenyl-1H-imidazo[4,5-c]quinolin-1-yl)ethyl]-N-methyl-1-piperidinecarbothioamide]
224 to 224.5 °C | Clc1nc2ccsc2c2c1nc(-c1ccccc1)n2CCC1CCNCC1 (as salt: trifluoroacetate) (hydrate or solvate) [Example 137]
161 to 162 °C | CNc1nc2ccccc2c2c1nc(-c1ccccc1)n2CCC1CCN(C(=O)OC(C)(C)C)CC1 (hydrate or solvate) [Example 95]
132 to 133 °C | CCOC(=O)N1CCC(CCn2cnc3c(Oc4ccccc4)nc4ccccc4c32)CC1 [Example 198]
201.5 to 202 °C | Cc1ccc(S(=O)(=O)N2CCC(CCn3cnc4c(Oc5ccccc5)nc5ccccc5c43)CC2)cc1 [Example 197]
215 to 221 °C (dec.) | Clc1nc2c(c3c1nc(-c1ccccc1)n3CCC1CCNCC1)CCCC2 (as salt: trifluoroacetate) [Example 135]
